Measured values as given in patent US20260041679A1, “METHOD OF TREATING HYPERTENSION WITH THE ALDOSTERONE SYNTHASE INHIBITOR BAXDROSTAT” (CINCOR PHARMA, INC., priority 2022, published 2026).
Like-named read-outs stand apart in the source and are kept apart here.

Columns and labels:
[1] = Plasma PK of baxdrostat and baxdrostat-M in the metformin crossover study (Example 6A); format: in vivo, human; settings: single 10-mg dose of baxdrostat; for AUC(0-t) / Cmax / Tmax: human
Description: This study was designed as a phase 1, randomized, open-label, 2-period, crossover trial. Each subject participated in a screening period of up to 26 days followed by 2 inpatient treatment periods and a follow-up phone call. […] Plasma samples were extracted by protein precipitation with methanol, followed by analysis by LC-MS/MS with ESI(+) and MRM. Reversed-phase chromatographic separation with a mobile phase gradient of 20% to 90% was utilized, and total run time was approximately 5 minutes. […] PK parameters were calculated using noncompartmental methods with SAS software, version 9.4 (SAS Institute). […] Tmax; […] AUC0-t; AUC0-inf, AUC0-inf extrapolated; λz; and t1/2. Plasma AUC0-72 was assessed only for baxdrostat and baxdrostat-M. […] Urine PK parameters included Ae, renal clearance (calculated as Ae/AUC), and the fraction of dose excreted renally.

[2] = Pharmacokinetics in subjects with varying degrees of renal function (Example 4); format: in vivo, human
Description: This phase 1, open-label, single-dose, parallel-group study was designed in accordance with the FDA guidance for the design and analysis of studies that assess the influence of impaired renal function on PK. Subjects were enrolled into three renal function groups defined based on eGFR calculated using the Chronic Kidney Disease Epidemiology Collaboration equation as follows: […]
Control(normal renal function or mild renal impairment:eGFR≥60 mL/min) • Moderate to severe renal impairment (eGFR 15 to 59 mL/min) • Kidney failure (eGFR<15 mL/min, including subjects on dialysis)
All subjects received a single 10 mg dose of baxdrostat in an open-label manner. […] All subjects were required to fast for a minimum of 10 hours prior to baxdrostat administration. They were then dosed at 8:00 AM (±2 hours) with two 5 mg tablets administered with approximately 240 mL of water. Subjects continued fasting for a minimum of 4 hours after dosing. No other medications were permitted within 2 hours prior to dosing and for 2 hours after dosing with baxdrostat. Subjects on dialysis received the study drug on a non-dialysis day. Blood and urine sample collection for PK analysis continued for 7 days and was proceeded by a follow-up phone call 3±1 days after clinic discharge.
Plasma and urine samples were analyzed to measure concentrations of baxdrostat and its primary metabolite (baxdrostat-M) using a validated LC-MS/MS method. “Baxdrostat-M” as used herein refers a compound having the following structure:
Blood and urine samples were collected prior to and after dosing for measurement of plasma and urine baxdrostat and baxdrostat-M concentrations to characterize maximum observed plasma concentration (Cmax), time to Cmax (Tmax), AUC0-last, and AUC0-inf for baxdrostat and baxdrostat-M. The t1/2, CL/F, and V/F were calculated for plasma baxdrostat only. Urine PK parameters included the cumulative amount of baxdrostat and baxdrostat-M excreted in urine (Ae), renal clearance (CLR) of baxdrostat and baxdrostat-M, and fraction of dose excreted renally (Fe) for baxdrostat.

[3] = PATHWAY-2 study; cited from earlier work
[4] = human, in vivo, 1000 mg
[5] = TEAEs by MedDRA class
Description: Safety assessments included monitoring of AEs, physical examinations, ECGs, orthostatic vital signs, and clinical laboratory evaluations.

[6] = clinical; settings: human, in vivo; for CL renal: CLR (urine); for Tmax: Tmax (plasma)

## CN1C(=O)CCc2cc(-c3cncc4c3CCCC4O)ccc21 (stereo not drawn) [baxdrostat-M]
[1]; read-out: AUC0-24, GM
  AUC(0-t): 103 ng·h/mL
[1]; read-out: AUC0-24, Mean
  AUC(0-t): 111 ng·h/mL
[1]; read-out: AUC0-72, GM
  AUC(0-t): 248 ng·h/mL
[1]; read-out: AUC0-72, Mean
  AUC(0-t): 264 ng·h/mL
[1]; read-out: Cmax, GM
  Cmax: 6.16 ng/mL
[1]; read-out: Cmax, Mean
  Cmax: 6.72 ng/mL
[1]; read-out: Tmax, GM
  Tmax: 12.4 h
[1]; read-out: Tmax, Mean
  Tmax: 15.7 h
[1]
  λz, GM: 0.030 h⁻¹
  λz, Mean: 0.030 h⁻¹
[2]; human, plasma, oral, 10 mg, all renal function groups, after single 10 mg baxdrostat, read-out: Tmax
  Tmax: ~22 h
[2]; moderate to severe renal impairment and kidney failure groups
  plasma concentration-time curves vs control: qualitatively similar to the control group

## CC(=O)S[C@@H]1CC2=CC(=O)CC[C@]2(C)[C@H]2CC[C@@]3(C)[C@@H](CC[C@@]34CCC(=O)O4)[C@H]12 [spironolactone]
[3]
  rate of hyperkalemia: 2.1%

## CN(C)C(=N)N=C(N)N [Metformin, metformin]
[4]
  AUC0-inf (plasma), GM: 11,087.78 h · ng/mL
  AUC0-inf (plasma), Mean: 11,224.76 h · ng/mL
  AUC0-t (plasma), GM: 11,024.21 h · ng/mL
  AUC0-t (plasma), Mean: 11,158.75 h · ng/mL
  Cmax (plasma), GM: 1732.62 ng/mL
  Cmax (plasma), Mean: 1765.39 ng/mL
[5]
  Abdominal pain upper, No. (%): 1 (3.8) No. (%)
  Burns first degree, No. (%): 1 (3.8) No. (%)
  Diarrhea, No. (%): 3 (11.5) No. (%)
  Dizziness postural, No. (%): 0 (0.0) No. (%)
  Flatulence, No. (%): 0 (0.0) No. (%)
  Gastrointestinal disorders, No. (%): 4 (15.4) No. (%)
  General disorders and administration site conditions, No. (%): 0 (0.0) No. (%)
  Injury, poisoning, and procedural complications, No. (%): 1 (3.8) No. (%)
  Nausea, No. (%): 1 (3.8) No. (%)
  Nervous system disorders, No. (%): 0 (0.0) No. (%)
  Presyncope, No. (%): 0 (0.0) No. (%)
  Vessel puncture site pain, No. (%): 0 (0.0) No. (%)
[5]; listed as metformin
  Diarrhea, No. (%): 3 (11.5%) No. (%)
[6]; 1000 mg, GM
  CL renal: 460 mL/min
[6]; 1000 mg, Mean
  CL renal: 466 mL/min
[6]; 1000 mg, Mean (SD)
  Tmax: 2.14 h
[6]; GM
  CL renal: 430 mL/min
[6]; Mean
  CL renal: 441 mL/min
[6]; GM (CV %)
  Tmax: 1.92 h
[6]; Mean (SD)
  Tmax: 2.04 h
